Measured values: US20090220566A1, “BIOIMPLANTS FOR USE IN TISSUE GROWTH” (priority 2006, published 2009)

Tested on: tissue ingrowth, specifically angiogenesis and vascularization
Conditions: for wound tissue / tissue ingrowth in the pores (histological sections): 3 μl per half implant of 70 μM salt in Hank's balanced salt solution on the closed pore; for conclusion on stimulation of wound healing: selenium at 0.25 ng/mm^3 of the implant, cobalt at 0.45 ng per mm^3 of the implant
Protocol: Brushite and hydroxyapatite cuboid bioimplants (434±4 mg dry weight) with a 2D branched structure (Y-shape pore) were produced by cement printing following a method previously developed (Hölzel, 2005). The pore was 1.31 mm diameter and open in the middle of one smaller face and decreased in diameter to 1 mm as it branched in the centre of the block. One branch emerged on an adjacent face while the other was a ‘blind’ closed pore. 5 μl of 70 μM copper sulphate solution was deposited at the end of the blind closed pore of the Y as represented in FIG. 2B. This solution thus contained a total of […] of copper sulphate, i.e. 22 ng of copper ions. It was absorbed onto a small localised volume ca 5 mm^3, of the implant of dimensions 8×8×4 mm, (approximately 250 mm^3). This copper thus represented 88 ng per cm^3.
Brushite and hydroxyapatite materials were implanted in animals for 15 days in order to observe tissue ingrowth, specifically angiogenesis and vascularization. In order to facilitate observation of tissue ingrowth the implants were made in two mirror image halves that keyed into one another and split the pore cavity along its symmetrical axis (FIG. 2). A 5 μl solution of copper sulfate at low concentration (0.07 mM) was deposited at the end of the closed pore, dried, and implanted in the abdominal cavity (i.e., intraperitoneally) in mice for 15 days. The retrieved implants were opened and examined for tissue ingrowth (FIG. 2C). […] This is in comparison to control implants with no adsorption of copper (FIG. 2D).
Similar to the implants with copper as described above, solutions (3 μl per half implant) of manganese chloride, sodium selenium, silver nitrate, zinc chloride, and cobalt chloride diluted in Hank's balanced salt solution (vehicle) were adsorbed on the closed pore on each half. They were used respectively at 70 μM. The final amounts of the metals ranged from 10 to 200 ng per implant. These conditions were compared to vehicle (HBBS) as control and copper (70 μM)
After 15 days of implantation in peritoneal site in mice, the implants were retrieved and histological sections of the tissue ingrowth in the pores were processed.

[1] = 15 days peritoneal site in mice
[2] = 3 μl per half implant of 70 μM salt on the closed pore, 15 days peritoneal site in mice

In the case of `O=[Se]([O-])[O-].[Na+].[Na+]` [selenium, sodium selenium], the “wound tissue / tissue ingrowth in the pores (histological sections)” value [1] is reported as “immature wound tissue”, the “orientation of tissue ingrowth towards the closed (loaded) pore” value (from here on “orientation”) [2] is reported as “oriented towards the closed pore” and the “conclusion on stimulation of wound healing” value is reported as “may enhance tissue maturation”.

For `[Cl][Co][Cl]` [cobalt, cobalt chloride], the microvessels by histology [2] was “microvessels with transgression of inflammatory cells were observed” and the “conclusion on stimulation of wound healing” value was “enhances particularly blood vessel formation”.

For `[Cl-].[Cl-].[Zn+2]` [zinc, zinc chloride], the “orientation” value [2] was “no orientation towards the closed pore”.

For manganese chloride, the “wound tissue / tissue ingrowth in the pores (histological sections)” value [1] was “a bloody tissue was formed in the pores”.

`O=[N+]([O-])[O-].[Ag+]` [silver, silver nitrate] was tested, and the “orientation” value [2] was “no orientation towards the closed pore”.

For VEGF, the “mean blood vessel in-growth distance” value (mouse, in vivo) was 3.7 mm and the “mean distance over which blood vessels were observed to grow from the large pore opening to the closed pore end” value (mouse, in vivo) was “nearly the entire length”.

`O=S(=O)([O-])[O-].[Cu+2]` [copper sulfate] was tested, and the blood vessels observed (mouse, in vivo) was “No blood vessels were observed”, the “concentrations of copper suitable to encourage endothelial cell growth into a 1.3 mm diameter pore opening at the surface of an implant” value (mouse, in vivo) was “below 20 μg/mm^3” and the “mean blood vessel in-growth distance” value (mouse, in vivo) was 4.3 mm. The “mean distance over which blood vessels were observed to grow from the large pore opening to the closed pore end” value (mouse, in vivo) was “nearly the entire length”, the “tissue infiltrating the pore” value (mouse, in vivo) was “tissue rich in leukocytes and dead cells” and the “tissue ingrowth in the pores” value (mouse, in vivo) was “vascular tissue”.
